Reference: ChEMBL document CHEMBL2375325, “Anti-neuroinflammatory properties of synthetic cryptolepine in human neuroblastoma cells: possible involvement of NF-κB and p38 MAPK inhibition” (Eur J Med Chem, 2013)
Active and inactive are the calls of the source.

Tests used:
SK-N-SH [1] = assay: Antiinflammatory activity against human SK-N-SH cells assessed as inhibition of IL1beta-induced IL6 production at 2.5 to 20 uM preincubated for 30 mins prior to IL1beta-stimulation measured after 24 hrs by ELISA; type: functional, cell-based
[2] = target: Transcription factor p65 (Homo sapiens) (UniProt Q04206); assay: Inhibition of IL1beta-induced NFkappaB p65 nuclear translocation in human SK-N-SH cells after 15 mins by ELISA; type: cell-based
SK-N-SH [3] = assay: Inhibition of microsomal PGES-1 protein expression in IL1beta-stimulated human SK-N-SH cells at 2.5 uM after 24 hrs by Western blotting analysis; type: functional, cell-based
SK-N-SH [4] = assay: Inhibition of microsomal PGES-1 gene expression in IL1beta-stimulated human SK-N-SH cells at 10 to 20 uM preincubated for 30 mins prior to IL1beta-stimulation measured after 4 hrs by qPCR analysis; type: functional, cell-based
SK-N-SH [5] = assay: Antiinflammatory activity against human SK-N-SH cells assessed as inhibition of IL1beta-induced TNFalpha production at 2.5 to 20 uM preincubated for 30 mins prior to IL1beta-stimulation measured after 24 hrs by ELISA; type: functional, cell-based
SK-N-SH [6] = assay: Inhibition of COX2 protein expression in IL1beta-stimulated human SK-N-SH cells at 2.5 uM after 24 hrs by Western blotting analysis relative to IL1beta-treated control; type: functional, cell-based
SK-N-SH [7] = assay: Inhibition of COX2 protein expression in IL1beta-stimulated human SK-N-SH cells at 5 to 20 uM after 24 hrs by Western blotting analysis; type: functional, cell-based
SK-N-SH [8] = assay: Inhibition of IL1beta-induced IkappaB phosphorylation in human SK-N-SH cells at 2.5 to 20 uM after 15 mins by ELISA; type: cell-based
SK-N-SH [9] = assay: Inhibition of microsomal PGES-1 gene expression in IL1beta-stimulated human SK-N-SH cells at 5 uM preincubated for 30 mins prior to IL1beta-stimulation measured after 4 hrs by qPCR analysis; type: functional, cell-based
SK-N-SH [10] = assay: Inhibition of microsomal PGES-1 protein expression in IL1beta-stimulated human SK-N-SH cells at 10 to 20 uM after 24 hrs by Western blotting analysis; type: functional, cell-based
SK-N-SH [11] = assay: Cytotoxicity against human SK-N-SH cells after 24 hrs by ATP assay; type: cell-based
SK-N-SH [12] = assay: Inhibition of COX2 gene expression in IL1beta-stimulated human SK-N-SH cells at 10 to 20 uM preincubated for 30 mins prior to IL1beta-stimulation measured after 4 hrs by qPCR analysis; type: functional, cell-based
[13] = target: T1, MAP kinase p38 (Homo sapiens) (UniProt O15264+Q15759+Q16539+P53778); assay: Inhibition of IL1beta-induced p38 MAPK phosphorylation in human SK-N-SH cells at 10 to 20 uM preincubated for 30 mins prior to IL1beta-stimulation measured after 1 hr by Western blotting analysis; type: cell-based
SK-N-SH [14] = assay: Antiinflammatory activity against human SK-N-SH cells assessed as inhibition of IL1beta-induced PGE2 production preincubated for 30 mins prior to IL1beta-stimulation measured after 24 hrs by enzyme immunoassay; type: functional, cell-based
[15] = target: T1, MAP kinase p38 (Homo sapiens); assay: Inhibition of p38 MAPK in human SK-N-SH cells assessed as inhibition of IL1beta-induced MAPKAPK2 phosphorylation preincubated for 30 mins prior to IL1beta-stimulation measured after 1 hr by Western blotting analysis; type: cell-based
SK-N-SH [16] = assay: Inhibition of microsomal PGES-1 gene expression in IL1beta-stimulated human SK-N-SH cells at 2.5 uM preincubated for 30 mins prior to IL1beta-stimulation measured after 4 hrs by qPCR analysis; type: functional, cell-based
SK-N-SH [17] = assay: Inhibition of microsomal PGES-1 protein expression in IL1beta-stimulated human SK-N-SH cells at 5 uM after 24 hrs by Western blotting analysis; type: functional, cell-based

Sequence of Transcription factor p65 (Homo sapiens) (Q04206 whole entry): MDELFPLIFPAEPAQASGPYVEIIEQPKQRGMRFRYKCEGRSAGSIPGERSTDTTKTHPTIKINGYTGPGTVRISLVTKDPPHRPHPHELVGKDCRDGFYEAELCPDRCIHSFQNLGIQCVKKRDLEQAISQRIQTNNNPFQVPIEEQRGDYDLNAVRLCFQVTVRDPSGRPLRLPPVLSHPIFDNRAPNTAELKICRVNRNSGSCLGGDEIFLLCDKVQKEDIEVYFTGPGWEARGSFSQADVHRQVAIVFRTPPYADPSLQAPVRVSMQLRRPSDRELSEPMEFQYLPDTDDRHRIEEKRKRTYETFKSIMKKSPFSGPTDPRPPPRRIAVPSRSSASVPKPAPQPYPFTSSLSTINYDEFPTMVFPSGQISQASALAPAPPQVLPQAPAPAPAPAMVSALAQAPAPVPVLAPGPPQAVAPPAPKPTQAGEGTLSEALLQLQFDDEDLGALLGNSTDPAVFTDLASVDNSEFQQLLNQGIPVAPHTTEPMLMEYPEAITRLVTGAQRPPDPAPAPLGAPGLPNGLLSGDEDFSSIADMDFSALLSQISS

C[n+]1c2ccccc2cc2[n-]c3ccccc3c21.Cl [CRYPTOLEPINE HYDROCHLORIDE]
Non-toxic: Activity (SK-N-SH [11])
inactive: inhibition (SK-N-SH [3]) | inhibition (SK-N-SH [6]) | inhibition (SK-N-SH [8]) | inhibition (SK-N-SH [16]) | inhibition (SK-N-SH [17])
active: Activity (SK-N-SH [1]) | inhibition [2] Dose-dependent effect | inhibition (SK-N-SH [4]) | Activity (SK-N-SH [5]) | inhibition (SK-N-SH [7]) | inhibition (SK-N-SH [9]) | inhibition (SK-N-SH [10]) | inhibition (SK-N-SH [12]) | inhibition [13] | Activity (SK-N-SH [14]) Dose-dependent effect | inhibition [15] Dose-dependent effect
